Results as given in patent US20060051787A1, “Quantitative PCR for analysis of DNA damage induced by PGHS-2 (COX-2) or other factors” (priority 2004, published 2006).
Values joined by “and” are separate entries in the source; they are usually repeats but may differ in a detail not shown here. Equal entries are not always repeated. Where two headings read alike, the source gives them in different places.

Legend:
[1] = tested on: XPA Cells #12 (PGHS+/neo+); experiment: Cytotoxicity: colony-forming ability of PGHS-2 expressing XPA cells; type: cell-based, human; conditions: for Colony Number (% of Control): treated two hours, incubated 10 days
Protocol: (§1) XPA cells #12 (PGHS^+/neo^+) and #32 (PGHS^−/neo^+) were selected for cytotoxicity and mutagenicity assays. Cytotoxicity assays were carried out by assaying the loss of colony-forming ability as previously described (1).
(§2) Cells were treated as follows: (a) no treatment, (b) 100 μM arachidonic acid (AA), (c) 200 μM AA, (d) 5 μM benzo(a)pyrene-7,8-dihydrodiol (BPD), (e) 5 μM BPD+100 μM AA, (f) 5 μM BPD+200 μM AA, (g) 100 μM butylated hydroxyanisole (BHA), (h) 100 μM BHA+5 μM BPD+100 AA and (i) 100 μM BHA+5 μM BPD+200 μM AA. BPD was dissolved in tetrahydrofuran.
(§3) Cytotoxicity of environmental toxicants to PGHS-2^+/neo^+ (PGHS-2-dependent) XPA and wild type cells were assayed by measuring colony-forming ability. Mutagenicity of the chemical was assayed by measuring induction of 6-thioguanine resistance of the cells, which was a result of mutation of the cells to the HPRT-phenotype.
(§4) Cytotoxicity assays were carried out by assaying the loss of colony-forming ability. Briefly, after harvesting, cells were plated at a cloning density of 600 cells/well in six-well plates and incubated for 7-12 days. The colonies were washed with PBS, fixed with methanol, stained with 0.04% methylene blue, and counted.

[2] = tested on: XPA Cells #32 (PGHS-/neo+); experiment: Cytotoxicity: colony-forming ability of negative control XPA cells; type: cell-based, human; conditions: treated two hours, incubated 10 days
Protocol: as §1, §2, §3, §4

[3] = tested on: XPA human skin fibroblast cell line which expressed cytochrome P450 1A1; conditions: by an endogenously formed metabolite of BPD; cited from earlier work
[4] = tested on: 8.8 kb mitochondrial DNA; experiment: QPCR (14 cycles) followed by real-time PCR DNA damage analysis in XPA cells; type: cell-based, human
From the text: QPCR products of 2.3 kb and 8.8 kb mitochondrial DNA were quantitated by real-time PCR with primers to produce a 112 bp fragment using the ABI PRISM® 7700 (Applied Biosystems). DNA replication was monitored by addition of a double-stranded DNA binding dye, SYBR® Green I (Applied Biosystems).
Real-time PCR primers selected from the […].
Concentrations of 8.8 kb PCR products were obtained after treatment of PGHS-2-expressing DNA damage repair deficient cells with t-BOOH (PGHS-2 substrate) and BPD (a premutagen) using a standard curve. The standard curve was obtained by real-time PCR with various concentrations of the 8.8 kb DNA.
QPCR of a 16.2 kb, 8.8 kb and 2.3 kb mitochondrial DNA and 2.3 kb p53 and 0.5 kb β-globin nuclear DNA were carried out using biotinylated nucleotide primers. The reaction mixture contained 15 ng of template DNA, 1.2 mM MgSO4, 0.2 mM deoxynucleotide triphosphates, 0.2 μM biotinylated primers, and 1 unit of Platinum Pfx DNA polymerase (Life Technologies). Alternatively, the QPCR was carried out with the GeneAmp XL PCR kit (PerkinElmer/Roche) which contains rTth DNA polymerase XL and XL PCR buffer as previously described (9).
The PCR was initiated with a 90° C. hot-start addition of the polymerase. Initial denaturation was carried out for 1 min at 94° C. followed by cycles of denaturation at 94° C. for 15 sec, primer extension and annealing at 66° C. for 12 min and final extension at 72° C. for 10 minutes. The DNA product was separated by electrophoresis on 1% agarose gel and visualized by ethidium bromide staining.
Best fitting real-time PCR primers were selected using Primer Express program (Applied Biosystems). The PCR primers selected for a real-time PCR were used to replicate 112 bp of PCR for both 8.8 kb and 2.3 kb mitochondrial DNA. The primer binding sites are located in the middle 2.1 kb section (the missing part in 6.7 kb internal control) of 8.8 kb fragment. […] The real-time PCR primers for 112 bp product (Tm, 79° C.) are […] […]
Standard curve for real-time PCR analysis was obtained with the 8.8 kb standards ranging from 0.012 to 1200 pg. Concentrations of the 8.8 kb DNA preparation were spectrophotometrically measured. […] Using the standard curve to obtain relationship of log concentrations of various standards and Ct, QPCR product levels of the samples were calculated.
Real-time PCR analysis was carried out and specificity of the real-time PCR of the 8.8 kb fragment was analyzed by (a) agarose gel electrophoresis of 40 cycle replicated 112 bp real-time PCR product and (b) melting curve of the 112 bp product. […]
Single 112 bp real-time PCR product was detected in each sample and a sharp melting curve at 79° C., which agreeded with the theoretical Tm, was obtained. […]

[5] = tested on: 16.2 kb mitochondrial fragment; conditions: cited from earlier work
[6] = tested on: 17.7 kb fragment of the nuclear beta-globin gene; conditions: cited from earlier work
[7] = tested on: 16.2 kb mitochondrial DNA; experiment: QPCR DNA damage analysis in XPA cells #12; type: cell-based, human; conditions: 0.5 mM t-BOOH; 3 hours; 26 cycles; FIG. 5
Protocol: Panel A, ethidium bromide staining of biotinylated mitochondrial DNA fragments (16.2 kb), Panel B, visualization of the biotinylated mitochondrial DNA fragments by chemiluminescent assay (ECL) system, Panel C, a negative control, ethidium bromide staining of biotinylated β-globin (0.55 kb) DNA fragments and Panel D, visualization of the biotinylated β-globin DNA fragments by an ECL system.
Lane 1, bp standards, lanes 2 and 3, cells treated with 1 mM t-BOOH+solvent for BPD (tetrahydrofuran), lanes 4 and 5, cells treated with 1 mM t-BOOH+5 μM BPD, lanes 6 and 7, cells treated with solvent for AA (ethanol), lanes 8 and 9, cells treated with 100 μM AA and lanes 10 and 11, cells treated with 100 μM AA+5 μM BPD. Cells were treated for 3 hours at 37° C., DNA was isolated and QPCRs were carried out using biotinylated nucleotide primers. […]
DNA damage repair deficient XPA cells #12 (PGHS-2+) were grown and cells were treated for three hours at 37° C. with 0.5 mM or 1 mM t-BOOH with or without 5 μM to 15 μM BPD. […] DNA fragments were transferred to a nitrocellulose membrane and visualized by a streptavidin-horseradish peroxidase/chemiluminescent (ECL) system followed by quantitation with a densitometer. Visualization of the DNA fragments by the ECL system amplified intensity of each DNA band and made it possible to quantitate each DNA band using a densitometer. […]

[8] = 200 μM for 15 minutes, in 1.5 hours
[9] = 200 μM for 60 minutes, in 3.5 hours

O[C@H]1C=Cc2c(cc3ccc4cccc5ccc2c3c45)[C@@H]1O (relative stereo) [BPD, benzo(a)pyrene-trans-7,8-dihydrodiol]
Colony Number (% of Control) ([1]; 5 μM BPD): 214.3 ± 7.1 % of Control
colony number (text summary of Table 1) ([1]; treatment for two hours): dramatically increased colony number
Colony Number (% of Control) ([2]; 5 μM BPD): 88.0 ± 3.3 % of Control
mutation frequencies versus wild type cell line [3]: approximately three-fold higher mutation frequencies
% mean value of control, 112.47 pg ([4]; 5 mM BPD, samples 1 and 2): 93.1 ± 2.7% and 111.9 ± 2.3%
pg DNA after 14 cycles of first PCR ([4]; 5 mM BPD, samples 1 and 2 = separate cell culture experiments): 104.71 ± 3.02 pg and 125.89 ± 2.59 pg

CCCCC/C=C\C/C=C\C/C=C\C/C=C\CCCC(=O)O [AA, arachidonic acid]
colony number (text summary of Table 1) [1]: dramatically increased colony number
Colony Number (% of Control) ([1]; 100 μM AA): 133.3 ± 12.6 % of Control
Colony Number (% of Control) ([1]; 200 μM AA): 140.5 ± 8.3 % of Control
Colony Number (% of Control) ([2]; 100 μM AA): 70.1 ± 0.6 % of Control
Colony Number (% of Control) ([2]; 200 μM AA): 72.0 ± 6.2 % of Control

COc1ccc(O)c(C(C)(C)C)c1 [BHA, butylated hydroxyanisole]
Colony Number (% of Control) ([1]; 100 μM BHA): 211.9 ± 4.8 % of Control
colony number (text summary of Table 1) ([1]; treatment for two hours): dramatically increased colony number
Colony Number (% of Control) ([2]; 100 μM BHA): 96.0 ± 3.8 % of Control

OO [hydrogen peroxide]
repair of DNA damage [5, 8]: completely repaired
repair of DNA damage [5, 9]: no repair
level of PCR products of the mitochondrial fragment relative to that of the nuclear beta-globin gene ([5]; 200 and 400 μM for an hour): 20%-30%
repair of DNA damage [6, 8]: completely repaired
repair of DNA damage [6, 9]: complete DNA repair

CC(C)(C)OO [t-BOOH, tert-butyl hydroperoxide]
16.2 kb PCR product level [7]: −50 % of control
% mean value of control, 112.47 pg ([4]; 0.5 mM t-BOOH, samples 1 and 2): 70.6 ± 2.0% and 46.7 ± 1.9%
pg DNA after 14 cycles of first PCR ([4]; 0.5 mM t-BOOH, samples 1 and 2): 79.40 ± 2.24 pg and 52.48 ± 2.19 pg
